Here are results for five compounds from patent publication US12612410B2 (CHILDREN'S HOSPITAL MEDICAL CENTER, priority 2020, dated 2026).

The target of one assay is T1, IRAK1 (Homo sapiens, UniProt P51617).
T1 construct: purchased Reaction Biology (RBC), HotSpot kinase assay
The assay is described as follows: RBC HotSpot Kinase Assay, IRAK1. It counts as biochemical. The note with it: isolated kinase, 33P-ATP. Put shortly:
(§1)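 Steps: substrate in reaction buffer (20 mM Hepes pH 7.5, 10 mM MgCl2, 2 mM DTT, 1% DMSO); cofactors added; kinase added; compound dispensed acoustically, 20 min RT; 33P-ATP added; 2 h RT; P81 filter capture.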

A further assay addresses T2, IRAK4 (Homo sapiens, UniProt Q9NWZ3).
T2 sequence (Q9NWZ3 1-460): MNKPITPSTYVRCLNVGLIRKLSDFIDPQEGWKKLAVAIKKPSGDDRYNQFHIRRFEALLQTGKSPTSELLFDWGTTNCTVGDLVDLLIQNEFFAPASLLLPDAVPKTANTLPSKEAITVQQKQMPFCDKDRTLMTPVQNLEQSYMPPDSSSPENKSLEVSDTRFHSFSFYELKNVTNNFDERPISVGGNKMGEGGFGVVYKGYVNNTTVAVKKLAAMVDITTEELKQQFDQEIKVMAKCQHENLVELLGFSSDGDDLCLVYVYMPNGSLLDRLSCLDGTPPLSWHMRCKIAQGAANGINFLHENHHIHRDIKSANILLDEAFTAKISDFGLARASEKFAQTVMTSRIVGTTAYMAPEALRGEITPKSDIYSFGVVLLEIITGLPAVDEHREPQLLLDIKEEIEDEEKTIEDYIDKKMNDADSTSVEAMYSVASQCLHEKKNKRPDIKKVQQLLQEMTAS
The assay is described as follows: RBC HotSpot Kinase Assay, IRAK4. It is filed as biochemical. On the set-up: purchased Reaction Biology (RBC), HotSpot kinase assay. As to conditions: isolated kinase, 33P-ATP. Put shortly: as §1

Structures are written as SMILES. Some results are limits rather than exact numbers.

T1 sequence (P51617 whole entry): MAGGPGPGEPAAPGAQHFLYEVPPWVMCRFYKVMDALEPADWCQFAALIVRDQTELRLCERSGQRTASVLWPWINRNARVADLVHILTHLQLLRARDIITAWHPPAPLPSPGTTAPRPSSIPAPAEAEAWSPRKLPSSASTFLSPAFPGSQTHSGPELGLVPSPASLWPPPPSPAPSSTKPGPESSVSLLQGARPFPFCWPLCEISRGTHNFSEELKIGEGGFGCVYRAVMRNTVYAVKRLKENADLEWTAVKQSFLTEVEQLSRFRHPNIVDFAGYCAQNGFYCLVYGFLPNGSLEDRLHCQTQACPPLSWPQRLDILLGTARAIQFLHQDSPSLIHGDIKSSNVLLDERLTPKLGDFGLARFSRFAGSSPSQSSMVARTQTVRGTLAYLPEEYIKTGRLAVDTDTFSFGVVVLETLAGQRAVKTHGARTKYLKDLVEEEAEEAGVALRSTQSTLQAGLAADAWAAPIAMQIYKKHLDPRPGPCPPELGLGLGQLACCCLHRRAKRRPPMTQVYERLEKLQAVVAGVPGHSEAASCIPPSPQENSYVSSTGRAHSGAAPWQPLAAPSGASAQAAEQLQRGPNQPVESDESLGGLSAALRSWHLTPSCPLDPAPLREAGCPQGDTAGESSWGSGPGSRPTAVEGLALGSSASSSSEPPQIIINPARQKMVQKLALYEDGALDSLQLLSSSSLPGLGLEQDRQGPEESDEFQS

As to `CC(O)(c1cn2c(-c3cccc(N[C@H]4CNC[C@@H]4F)n3)cnc2cn1)C(F)(F)F` (single isomer, unassigned) [Compound 78], the IC50 – broadly, the midpoint of a concentration-inhibition curve – against IRAK1 is 66 nM; against IRAK4, below 0.5 nM.
Regarding `FC(F)(F)C1(c2cn3c(-c4cccc(N[C@@H]5CCNC5)n4)cnc3cn2)CC1` [Compound 10, (R)-N-(pyrrolidin-3-yl)-6-(6-(1-(trifluoromethyl)cyclopropyl)imidazo[1,2-a]pyrazin-3-yl)pyridin-2-amine], the IC50 amounted to 155 nM at IRAK1 and 2 nM on IRAK4.
Take `CC(C)(O)c1cn2c(-c3cccc(N[C@@H]4CCCNC4)n3)cnc2cn1` [Compound 30, (R)-2-(3-(6-(piperidin-3-ylamino)pyridin-2-yl)imidazo[1,2-a]pyrazin-6-yl)propan-2-ol]: the IC50 is 58 nM against IRAK1 and below 0.5 nM on IRAK4.
The matching figures for `Cn1cc(-c2cn3c(-c4cccc(N[C@H]5CNC[C@@H]5F)n4)cnc3cn2)cn1` [Compound 52, N-((3S,4S)-4-fluoropyrrolidin-3-yl)-6-(6-(1-methyl-1H-pyrazol-4-yl)imidazo[1,2-a]pyrazin-3-yl)pyridin-2-amine]: 202 nM and 1 nM.
As to `O=C1NCCN1c1cn2c(-c3cccc(N[C@H]4CNCC[C@@H]4F)n3)cnc2cn1` [Compound 118, 1-(3-(6-(((3S,4S)-4-fluoropiperidin-3-yl)amino)pyridin-2-yl)imidazo[1,2-a]pyrazin-6-yl)imidazolidin-2-one], the IC50 at IRAK1 was 22 nM; on IRAK4, 4 nM.
